Columns and labels:
Format in all cases: physicochemical
[1] = Comparison of aqueous solubility and dissolution rate; settings: F-I compared with F-III
[2] = Stability at different relative humidities (XRD of stored samples); settings: entire relative humidity range
Protocol: XRD patterns were obtained for samples of F-I and F-III stored at different relative humidities (0, 22, 50, and 80%). There is a gradual shifting of the initial (0% RH) F-III peaks at about 13.8, 17.6, 18.0, 20.5 and 24.0° in 2θ as well as slight shifting of less intense peaks, as the relative humidity is increased. These observed changes in the XRD patterns of F-III indicate that the unit cell dimensions are changing, presumably to accommodate weakly held water molecules as the relative humidity is increased.
A similar experiment was carried out on F-I to determine whether varying the relative humidity would have a similar effect on its lattice (0, 25, 52, 73 and 95% RH). Very slight shifting of the 0% RH peaks at about 7.7, 18.3, 18.5, 20.5, 20.8° in 2θ is observed as the relative humidity is increased. […] The shifting of peaks in the XRD patterns of F-I is less dramatic than the peak shifts observed as F-III was exposed to different relative humidities.
XRD patterns were obtained on a Siemens D5000 X-ray powder diffractometer, equipped with a CuKα source (λ=1.54056 Å) and a Kevex solid-state detector, operating at 50 kV and 40 mA. Each sample was scanned between 4° and 35° in 2θ. Samples were allowed to equilibrate for at least 30 minutes at the desired temperature and/or relative humidity before data collection.

[3] = Hygroscopicity (moisture sorption isotherms, VTI method)
Protocol: Hygroscopicicity studies were performed on F-I and F-III. Upon initial exposure of the samples to approximately 5% RH, there was an immediate weight gain of 1.5% and 1.7% moisture for F-I and F-III, respectively, equivalent to approximately 0.5 mole of water. Both forms show a continuous sorption of moisture through the entire humidity range, which is likely due to incorporation of water molecules in the lattices.
The moisture sorption profiles for F-I and F-III reveal that these forms are essentially non-stoichiometric hydrates. At ambient relative humidity (about 50% RH), F-I contains approximately 1.7% water, corresponding to 0.5 moles of water, while F-III has sorbed about 3.0% water which corresponds to about 0.85 moles of water. The bulk forms of F-I and F-III rapidly equilibrate with the atmosphere, so that the water content observed by analytical techniques is a reflection of the relative humidity at the time of data collection. Lot-to-lot differences observed in the DSC data likely results from the samples being hydrated to different extents due to different ambient storage conditions.
Hygroscopicity measurements were made for F-I and F-III using the VTI method as follows. Each sample was dried under vacuum at 60° C. until no further weight loss was detected, at which time the sample chamber was brought to 0% relative humidity. Moisture sorption isotherms were obtained at 25° C. using a VTI vacuum moisture balance with the following conditions: sample size 10-15 mg, adsorption/desorption range 0-95% relative humidity, step interval 5%, sample interval 10 minutes.

[4] = Stability at ambient temperature relative to arzoxifene of '474; settings: relative to the arzoxifene produced by the procedures taught in '474
[5] = ambient relative humidity (about 50% RH)

COc1ccc(-c2sc3cc(O)ccc3c2Oc2ccc(OCCN3CCCCC3)cc2)cc1.Cl [F-I, 6-hydroxy-3-(4-[2-(piperidin-1-yl)ethoxy]phenoxy)-2-(4-methoxyphenyl)benzo[b]thiophene hydrochloride]
aqueous solubilities [1]: comparable
dissolution rates [1]: comparable
stability over relative humidity range [2]: stable over the entire relative humidity range
water content [3, 5]: approximately 1.7%
water content in moles of water [3, 5]: 0.5 mol
water equivalent of the weight gain ([3]; approximately 5% RH): approximately 0.5 mole
immediate weight gain of moisture ([3]; initial exposure to approximately 5% RH, 25° C.): 1.5%
stability at ambient temperature [4]: more stable
